Assay results published in patent publication US20090233942A1, “Genetic markers associated with response to antidepressants” (priority 2008, published 2009).

Test system: beagle dogs
Assay: Pre-clinical study in beagle dogs
Assay type: in vivo, dog

For `Cl.N#Cc1ccc2[nH]cc(CCCCN3CCN(c4ccc5oc(C(N)=O)cc5c4)CC3)c2c1` [Vilazodone, 5-{4-[4-(5-Cyano-3-indolyl)-butyl]-1-piperazinyl}-benzofuran-2-carboxamide hydrochloride], the ocular findings was “treatment emergent corneal opacities and reduced tear production”.
